The values that follow come from ChEMBL document CHEMBL1201862, “PubChem BioAssay data set” (2004).

Active and inactive are the calls of the source. Cut-off read from the data, not from the text of the source, for most assays here: actives have a measured EC50 and inactives only a lower limit.

Assay [1] is described as follows: microbe, parasite or virus in culture. It is filed as functional. The following applies: Mycobacterium tuberculosis.
Assay [2] deals with T1, Type-1 angiotensin II receptor (Homo sapiens, UniProt P30556).
T1 sequence (P30556 whole entry): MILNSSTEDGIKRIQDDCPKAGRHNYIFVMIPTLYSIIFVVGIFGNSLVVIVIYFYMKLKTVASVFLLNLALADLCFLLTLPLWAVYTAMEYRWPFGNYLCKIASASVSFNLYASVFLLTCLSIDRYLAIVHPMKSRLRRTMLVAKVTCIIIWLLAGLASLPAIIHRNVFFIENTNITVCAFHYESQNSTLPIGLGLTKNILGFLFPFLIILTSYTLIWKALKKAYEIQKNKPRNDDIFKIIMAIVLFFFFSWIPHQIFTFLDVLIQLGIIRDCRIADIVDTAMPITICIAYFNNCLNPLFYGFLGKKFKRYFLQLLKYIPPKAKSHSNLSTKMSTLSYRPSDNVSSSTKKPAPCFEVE
In words: AT1 receptor antagonists, dose response, selectivity assay for APJ receptor antagonist project, cell-based, uHTS hits (AID 463214).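 Note: antagonist potency against angiotensin II stimulated AT1 response.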 It is filed as functional.

Assay [3] is described as follows: inhibitors of intracellular T. cruzi replication, confirmation, NIH3T3 host cells, beta-gal luminescence (AID 2044).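 Note: intracellular parasites grown in NIH/3T3 mouse fibroblasts as host cells; luminescent beta-galactosidase reporter signal from transgenic T. cruzi replicating inside host cells; inhibitors lower the luminescence signal.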 It is filed as functional, cell-based.
Assay [4] deals with Beta-galactosidase (Escherichia coli, UniProt Q8VNN2). Nature of the assay: PubChem AID 485352. It is filed as functional.
Chain of Beta-galactosidase (Q8VNN2 whole entry): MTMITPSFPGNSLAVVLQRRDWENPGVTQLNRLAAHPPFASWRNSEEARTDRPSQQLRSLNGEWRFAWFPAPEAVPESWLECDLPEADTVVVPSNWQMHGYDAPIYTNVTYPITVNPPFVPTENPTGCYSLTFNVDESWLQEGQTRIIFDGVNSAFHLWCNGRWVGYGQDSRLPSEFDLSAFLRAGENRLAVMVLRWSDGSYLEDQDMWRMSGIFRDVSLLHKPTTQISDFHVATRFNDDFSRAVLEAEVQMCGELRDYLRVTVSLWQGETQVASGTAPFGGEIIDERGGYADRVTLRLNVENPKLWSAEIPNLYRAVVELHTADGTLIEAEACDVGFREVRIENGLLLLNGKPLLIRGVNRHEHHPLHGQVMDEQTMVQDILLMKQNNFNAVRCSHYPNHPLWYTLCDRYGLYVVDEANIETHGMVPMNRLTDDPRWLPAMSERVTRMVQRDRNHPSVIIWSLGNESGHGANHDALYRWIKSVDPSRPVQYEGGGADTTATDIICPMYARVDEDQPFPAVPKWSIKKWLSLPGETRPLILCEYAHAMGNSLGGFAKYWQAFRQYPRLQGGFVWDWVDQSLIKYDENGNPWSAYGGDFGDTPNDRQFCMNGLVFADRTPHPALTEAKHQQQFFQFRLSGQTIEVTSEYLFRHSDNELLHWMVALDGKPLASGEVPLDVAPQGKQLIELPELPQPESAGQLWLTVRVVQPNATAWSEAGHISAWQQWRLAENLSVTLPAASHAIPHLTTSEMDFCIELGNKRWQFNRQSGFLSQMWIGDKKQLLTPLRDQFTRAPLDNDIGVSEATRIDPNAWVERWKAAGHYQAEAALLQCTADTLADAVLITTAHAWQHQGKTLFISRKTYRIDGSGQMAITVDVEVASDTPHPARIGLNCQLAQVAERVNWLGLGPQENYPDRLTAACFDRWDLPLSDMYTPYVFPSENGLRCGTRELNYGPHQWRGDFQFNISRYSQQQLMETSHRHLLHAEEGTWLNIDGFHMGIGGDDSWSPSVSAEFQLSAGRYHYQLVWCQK
Assay [5] can be described thus: cytotoxicity toward NIH3T3 fibroblasts, dose response, counter-screen, cell-based, ATP luminescence, mouse fibroblasts (AID 2010).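 Note: cells exposed to compound for about 90 hours before reading.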 It is filed as functional.
The target in assay [6] is Nonstructural protein 1 (Influenza A virus, UniProt Q194T2). It is filed as functional, Influenza A virus (A/California/07/2009(H1N1)).
Chain of Nonstructural protein 1 (Q194T2 whole entry): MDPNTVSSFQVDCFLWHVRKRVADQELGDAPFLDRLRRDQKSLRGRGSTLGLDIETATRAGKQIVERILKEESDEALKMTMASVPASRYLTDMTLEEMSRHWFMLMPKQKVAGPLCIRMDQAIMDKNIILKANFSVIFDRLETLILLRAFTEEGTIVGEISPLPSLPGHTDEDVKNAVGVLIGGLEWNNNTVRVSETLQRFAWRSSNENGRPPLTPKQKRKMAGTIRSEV
Assay [7] has as its target T2, Heat shock factor protein 1 (Mus musculus, UniProt P38532).
T2 sequence (P38532 whole entry): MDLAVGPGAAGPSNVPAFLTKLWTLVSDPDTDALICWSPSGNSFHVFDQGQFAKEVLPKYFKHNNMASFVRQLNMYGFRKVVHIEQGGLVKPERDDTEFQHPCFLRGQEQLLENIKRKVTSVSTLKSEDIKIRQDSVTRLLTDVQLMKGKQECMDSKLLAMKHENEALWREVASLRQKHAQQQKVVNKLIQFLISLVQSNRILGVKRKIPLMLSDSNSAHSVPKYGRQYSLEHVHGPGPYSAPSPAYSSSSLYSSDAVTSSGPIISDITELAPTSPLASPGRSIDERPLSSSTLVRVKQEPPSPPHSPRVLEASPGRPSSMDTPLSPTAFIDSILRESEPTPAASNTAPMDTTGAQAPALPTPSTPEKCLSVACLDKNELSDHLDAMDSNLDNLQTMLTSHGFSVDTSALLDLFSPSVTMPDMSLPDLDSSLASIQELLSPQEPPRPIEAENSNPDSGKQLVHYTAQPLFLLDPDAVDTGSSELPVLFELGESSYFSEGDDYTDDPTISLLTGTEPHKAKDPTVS
Nature of the assay: HSF1 potentiators in luciferase reporter cells, confirmation, cell-based, NIH3T3, luminescence, dose retest (AID 435004).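 Note: stress induced by proteasome inhibitor MG132 added 30 min after compound; luciferase reporter driven by HSF1 response element in NIH3T3 cells; actives raise luminescence as potentiators of the MG132 stress response.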 The format is functional.

Assay [8] relates to Vero. Nature of the assay: cells. The following applies: Chlorocebus sabaeus. It is filed as functional.
Assay [9] in a line: inhibitors of firefly luciferase expression or activity, dose response, H4 neuroglioma cells, luminescence (AID 1990). The format is functional, cell-based.
Assay [10] is described as follows: inhibitors of SNCA 5'UTR-driven reporter translation, confirmation, H4 neuroglioma cells, luminescence (AID 1988). It is filed as functional, cell-based.
Assay [11] concerns INS1. In words: beta cell apoptosis inhibitors, cytokine rescue, dose response, luminescence, retest (AID 449756).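 Note: cell death triggered by IL-1 beta plus TNF-alpha plus IFN-gamma mixture; protective hits raise ATP signal compared with cytokine alone wells.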 It is filed as functional, cell-based. The conditions noted are these: Rattus norvegicus.
A short description of assay [12]: cells. It is filed as functional, cell-based.
The nature of assay [13]: Luminescence Cell-Based Dose Response HTS to Identify Inhibitors of 5'UTR Stem-Loop Driven Prion Protein mRNA Translation in H4 Neuroglioblastoma Cells. [Related pubchem assays: 1827 (Project Summary), 1813 (Primary HTS)]. It is filed as functional.
The nature of assay [14]: cells. It is filed as functional, cell-based. The source holds these as a separate data set.
The target of assay [15] is T3, Streptokinase A (Streptococcus pyogenes serotype M1, UniProt P10520).
T3 sequence (P10520 whole entry): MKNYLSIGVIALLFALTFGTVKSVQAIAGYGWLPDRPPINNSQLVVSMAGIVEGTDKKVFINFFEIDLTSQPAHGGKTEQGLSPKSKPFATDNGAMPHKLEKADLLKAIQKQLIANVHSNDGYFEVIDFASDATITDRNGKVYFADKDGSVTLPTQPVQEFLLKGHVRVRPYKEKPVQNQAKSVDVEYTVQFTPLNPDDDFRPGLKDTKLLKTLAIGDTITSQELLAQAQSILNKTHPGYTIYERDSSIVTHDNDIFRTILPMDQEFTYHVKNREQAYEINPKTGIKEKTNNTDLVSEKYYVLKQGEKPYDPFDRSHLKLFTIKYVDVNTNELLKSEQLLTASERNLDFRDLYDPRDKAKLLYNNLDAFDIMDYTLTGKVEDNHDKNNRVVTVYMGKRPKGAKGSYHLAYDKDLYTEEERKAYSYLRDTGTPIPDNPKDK
In words: S. pyogenes streptokinase expression inhibitors, potency, dose response, plasminogen activation absorbance, OD405 (AID 1914).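 Note: secreted streptokinase activity via plasminogen activation per viability signal from cell pellet.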 It is filed as functional, Streptococcus pyogenes M1 GAS.

Assay [16] concerns Streptococcus sp. 'group A'. Nature of the assay: growth inhibition of control SK(-) GAS strain, dose response, counter-screen for streptokinase expression inhibitor project, luminescence, kanamycin, BacTiterGlo, confirmation (AID 1900). The format is functional, organism-based. On the technique in general: A counterscreen serves to expose hits that act by an unwanted route or on another target.

Assay [17] relates to Streptococcus. In words: Group A Streptococcus viability loss, dose response, counter-screen for streptokinase expression inhibitor project, luminescence, BacTiterGlo (AID 1915).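 Note: potency for reduction of bacterial viability or growth.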 The format is functional, organism-based.
Assay [18] deals with T4, Protein RecA (Mycobacterium tuberculosis, UniProt P9WHJ3).
T4 sequence (P9WHJ3 whole entry): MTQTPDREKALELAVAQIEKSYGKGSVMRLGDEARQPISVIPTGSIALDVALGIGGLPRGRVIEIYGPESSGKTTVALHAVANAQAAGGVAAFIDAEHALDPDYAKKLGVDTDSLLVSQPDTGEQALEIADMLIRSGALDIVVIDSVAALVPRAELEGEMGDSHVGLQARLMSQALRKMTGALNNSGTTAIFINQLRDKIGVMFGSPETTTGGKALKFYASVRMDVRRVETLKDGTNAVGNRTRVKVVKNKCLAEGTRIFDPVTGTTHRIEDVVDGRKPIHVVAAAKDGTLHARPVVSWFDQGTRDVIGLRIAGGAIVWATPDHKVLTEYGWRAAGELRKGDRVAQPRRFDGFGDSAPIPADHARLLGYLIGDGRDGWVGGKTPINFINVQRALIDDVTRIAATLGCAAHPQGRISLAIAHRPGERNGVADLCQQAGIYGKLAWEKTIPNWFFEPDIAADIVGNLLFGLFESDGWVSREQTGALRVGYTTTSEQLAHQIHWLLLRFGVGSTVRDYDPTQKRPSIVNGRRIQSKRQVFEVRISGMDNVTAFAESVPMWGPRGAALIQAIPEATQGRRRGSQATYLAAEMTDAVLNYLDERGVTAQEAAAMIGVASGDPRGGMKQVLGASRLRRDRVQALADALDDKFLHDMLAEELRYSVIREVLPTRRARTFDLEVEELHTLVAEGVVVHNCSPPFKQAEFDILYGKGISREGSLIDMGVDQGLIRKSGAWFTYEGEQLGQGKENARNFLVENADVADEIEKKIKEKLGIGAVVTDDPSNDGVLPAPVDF
In words: Fluorescence Cell-Free Homogeneous Dose Retest to Identify Inhibitors of RecA-Intein Splicing Activity. [Related pubchem assays (depositor defined):AID2097, AID2223, AID489010, AID492950]. The format is functional.

Assay [19] concerns the target T5, Replicative DNA helicase DnaB (Mycobacterium tuberculosis, UniProt P9WMR3).
T5 sequence (P9WMR3 whole entry): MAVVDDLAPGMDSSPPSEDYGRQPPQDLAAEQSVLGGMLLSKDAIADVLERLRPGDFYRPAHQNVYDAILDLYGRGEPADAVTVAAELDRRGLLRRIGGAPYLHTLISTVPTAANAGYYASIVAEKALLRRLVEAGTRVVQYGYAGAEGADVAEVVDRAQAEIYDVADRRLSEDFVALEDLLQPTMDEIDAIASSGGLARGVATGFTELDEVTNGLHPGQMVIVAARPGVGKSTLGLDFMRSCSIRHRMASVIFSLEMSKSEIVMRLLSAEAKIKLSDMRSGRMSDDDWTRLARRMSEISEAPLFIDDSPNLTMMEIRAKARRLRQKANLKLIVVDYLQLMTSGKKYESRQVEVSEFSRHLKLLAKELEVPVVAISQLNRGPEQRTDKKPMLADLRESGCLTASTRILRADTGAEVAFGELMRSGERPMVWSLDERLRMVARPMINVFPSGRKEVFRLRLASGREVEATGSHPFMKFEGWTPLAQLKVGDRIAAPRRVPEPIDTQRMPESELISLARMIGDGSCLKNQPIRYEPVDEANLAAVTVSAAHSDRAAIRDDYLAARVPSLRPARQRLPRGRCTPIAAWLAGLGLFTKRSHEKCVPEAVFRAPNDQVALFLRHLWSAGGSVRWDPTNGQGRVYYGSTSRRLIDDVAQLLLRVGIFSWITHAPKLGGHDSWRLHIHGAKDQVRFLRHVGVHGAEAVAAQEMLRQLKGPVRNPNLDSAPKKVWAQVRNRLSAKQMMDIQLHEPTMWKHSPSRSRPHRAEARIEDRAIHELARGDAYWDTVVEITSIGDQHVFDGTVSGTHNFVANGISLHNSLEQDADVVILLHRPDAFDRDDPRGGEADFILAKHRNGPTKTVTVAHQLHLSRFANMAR
In words: DnaB intein splicing inhibitors, dose response, biochemical, cell-free fluorescence (AID 449749). The format is functional.

Broadly, the IC50 is the concentration that inhibits the measured activity by half. Usually EC50 stands for the concentration needed to bring the measured effect to its halfway point. Usually AC50 stands for the concentration giving half of the maximal activity seen.

`CCN(CC)S(=O)(=O)c1ccc2oc(SCC(=O)Nc3cc(C)on3)nc2c1`: in assay [1], the CC50 is 11.6 µM (active). Further, the IC50 in [2] was > 40 µM (not active). Moreover, the EC50 is > 30 µM (not active) in assay [3], > 40 µM (inactive) in assay [4] and 5.9 µM (active) in assay [5].
With `CCc1cc2c(=O)[nH]c(-c3ccccn3)nc2s1`, the values for the IC50 in assay [6] and in assay [2] were 14.3 µM (active) and 2.91 µM (active), respectively. The EC50 in [7] is 12.9 µM (active); in [4], > 40 µM (inactive).
Turning to `O=C(N/N=C(\c1ccccc1)c1ccccn1)c1ccccc1Cl`, the CC50 in assay [1] is 5.75 µM (active); in [8], 6.17 µM (active). Besides, the EC50 was 2.03 µM (active) in assay [9]; 0.852 µM (active) in assay [3]; 0.472 µM (active) in assay [10]; 5.45 µM (active) in [5]; > 350 µM (not active) in assay [12]; 4.49 µM (active) in [13]. In [14], the EC50 was 12.1 µM (active). Besides, in assay [11], the AC50 is 1.27 µM (active).
Consider `Cn1cccc1/C=C(/C#N)C(N)=S`, for which, in assay [2], the IC50 is given as > 40 µM (not active). Also, the EC50 in assay [4] was > 40 µM (inactive).
For the compound `COc1ccc(OC)c(/C=C/c2ccc3cccc(O)c3n2)c1`, the CC50 in assay [8] was 9.5 µM (active). In addition, the EC50 was > 150 µM (not active) in assay [15]; 2.07 µM (active) in assay [3]; 0.323 µM (active) in [16]; > 30 µM (not active) in [5]; 10.7 µM (active) in assay [17].
With `CC(C)OC(=O)CN1C(=O)C(=O)c2ccccc21`, the EC50 in [18] was 8.52 µM (active); in assay [4], > 40 µM (inactive). Further, in [19], the AC50 was 14.3 µM (active). In addition, in assay [2], the half-maximal inhibitory concentration (IC50) was 5.32 µM (active).
